The source of these data is ChEMBL document CHEMBL1130296, “Benzo[c]quinoliziniums: A new family of inhibitors for protein kinase CK II” (Bioorg Med Chem Lett, 1997).

T1 sequence (P67870 whole entry): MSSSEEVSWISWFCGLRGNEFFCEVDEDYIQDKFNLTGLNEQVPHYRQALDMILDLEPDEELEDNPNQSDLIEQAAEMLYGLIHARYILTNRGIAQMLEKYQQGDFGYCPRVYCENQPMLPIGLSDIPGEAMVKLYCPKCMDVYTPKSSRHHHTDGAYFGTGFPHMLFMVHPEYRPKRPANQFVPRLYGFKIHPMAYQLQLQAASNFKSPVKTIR
T1 sequence (P68400 whole entry): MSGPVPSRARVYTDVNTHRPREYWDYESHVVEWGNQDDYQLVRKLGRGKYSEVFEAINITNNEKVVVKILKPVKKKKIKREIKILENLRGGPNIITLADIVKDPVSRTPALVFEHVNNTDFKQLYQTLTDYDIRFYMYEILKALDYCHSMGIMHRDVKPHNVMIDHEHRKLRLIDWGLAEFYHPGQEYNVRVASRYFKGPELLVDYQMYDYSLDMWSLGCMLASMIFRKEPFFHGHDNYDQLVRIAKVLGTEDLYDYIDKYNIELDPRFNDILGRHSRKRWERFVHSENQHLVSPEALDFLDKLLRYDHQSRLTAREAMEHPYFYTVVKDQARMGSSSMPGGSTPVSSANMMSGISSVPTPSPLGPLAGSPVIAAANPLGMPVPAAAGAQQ
T1 sequence (P19784 whole entry): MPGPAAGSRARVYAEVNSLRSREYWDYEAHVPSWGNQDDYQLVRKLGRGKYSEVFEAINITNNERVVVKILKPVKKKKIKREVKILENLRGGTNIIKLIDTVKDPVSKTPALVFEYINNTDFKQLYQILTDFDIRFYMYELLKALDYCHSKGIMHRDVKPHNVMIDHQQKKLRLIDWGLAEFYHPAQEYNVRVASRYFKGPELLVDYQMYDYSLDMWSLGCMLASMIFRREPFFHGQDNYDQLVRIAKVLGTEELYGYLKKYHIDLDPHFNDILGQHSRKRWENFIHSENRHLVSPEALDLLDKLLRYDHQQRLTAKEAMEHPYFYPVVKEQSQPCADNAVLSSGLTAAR
Sequence of Proto-oncogene tyrosine-protein kinase Src (P12931 2-536 limits assumed): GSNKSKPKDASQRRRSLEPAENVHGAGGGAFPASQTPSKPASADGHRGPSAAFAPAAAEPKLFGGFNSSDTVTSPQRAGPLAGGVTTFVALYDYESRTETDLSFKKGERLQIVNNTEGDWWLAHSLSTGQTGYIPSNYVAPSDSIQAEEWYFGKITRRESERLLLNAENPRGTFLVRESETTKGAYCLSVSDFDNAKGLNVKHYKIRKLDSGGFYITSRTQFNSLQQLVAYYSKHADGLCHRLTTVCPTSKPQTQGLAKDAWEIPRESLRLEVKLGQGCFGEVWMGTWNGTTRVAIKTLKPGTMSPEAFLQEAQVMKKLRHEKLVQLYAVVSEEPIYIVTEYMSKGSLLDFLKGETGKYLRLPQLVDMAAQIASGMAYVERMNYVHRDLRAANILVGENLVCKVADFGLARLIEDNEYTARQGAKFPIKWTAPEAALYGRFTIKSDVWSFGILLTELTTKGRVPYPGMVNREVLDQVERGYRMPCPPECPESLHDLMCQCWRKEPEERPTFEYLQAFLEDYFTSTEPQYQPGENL

One assay concerns the target T1, Casein kinase II (Homo sapiens, UniProt P19784+P67870+P68400). Nature of the assay: Inhibition of casein kinase II. Type of assay: protein-complex assay.
With `Oc1cc2cccc[n+]2c2c(Cl)cccc12.[Cl-]`, half-maximal inhibition (IC50) required 5 µM.

For the next assay, the target named is T1, Casein kinase II. Nature of the assay: Inhibitory concentration was determined towards Casein kinase 2. Type of assay: protein-complex assay.
Take `Nc1cc2cccc[n+]2c2ccccc12` [listing 1 of 2 here]: the 50% inhibitory concentration (IC50) (in general, the concentration that inhibits the measured activity by half) turned out to be 110 µM.

Take `O/C(=C/c1ccccn1)c1ccccc1`: the half-maximal inhibitory concentration (IC50) amounted to 2500 µM.

`O/C(=C/c1ccccn1)c1ccc(Cl)cc1Cl`: half-maximal inhibition (IC50) was put at 900 µM.

`O/C(=C/c1ccccn1)c1c(Cl)cccc1Cl` registered an IC50 of 580 µM.

On to `Oc1cc2cccc[n+]2c2cccc(Cl)c12`, for which the midpoint of inhibition, the IC50, lay at 18 µM.

`Oc1cc2cccc[n+]2c2cc(Cl)ccc12` registered an IC50 of 39 µM.

Molecule `Oc1cc2cccc[n+]2c2ccccc12` [listing 1 of 2 here] had a concentration for half-maximal inhibition (IC50) of 43 µM.

On to `Oc1cc2cccc[n+]2c2ccc(Cl)cc12`, for which the concentration for half-maximal inhibition (IC50) amounted to 210 µM.

Take `Nc1cc2cccc[n+]2c2cc(Cl)ccc12`: the midpoint of inhibition, the IC50, lay at 24 µM.

Molecule `O/C(=C/c1ccccn1)c1cccc(Cl)c1Cl` had an IC50 of 130 µM.

Take `Nc1cc2cccc[n+]2c2ccccc12` [listing 2 of 2 here]: the half-inhibitory concentration (IC50) was 100 µM.

Molecule `Nc1cc2cccc[n+]2c2c(Cl)cccc12` gave a 50% inhibitory concentration (IC50) of 50 µM.

For `O/C(=C/c1ccccn1)c1ccccc1Br`, 820 µM corresponded to half-maximal inhibition (IC50).

For `Oc1cc2cccc[n+]2c2ccccc12` [listing 2 of 2 here], the IC50 came to 50 µM.

Consider `O/C(=C/c1ccccn1)c1ccccc1Cl`, for which the IC50 amounted to 1200 µM.

Regarding `Nc1cc2cccc[n+]2c2cccc(Cl)c12`, the half-inhibitory concentration (IC50) is 84 µM.

Another assay concerns the target Proto-oncogene tyrosine-protein kinase Src (Homo sapiens, UniProt P12931). Nature of the assay: Inhibition of p60 c-Src tyrosine kinase (No inhibition).
`Oc1cc2cccc[n+]2c2c(Cl)cccc12.[Cl-]`: the IC50 result is on record as “Not Active”.

In the next assay the target is Protein kinase C (PKC). Nature of the assay: Inhibition of protein kinase C. Type of assay: protein assay.
Molecule `Oc1cc2cccc[n+]2c2c(Cl)cccc12.[Cl-]` had an IC50 of 38 µM.

For the next assay, the target named is Cyclin-dependent kinase 1 (Homo sapiens, UniProt P06493). Nature of the assay: Inhibition of cyclin-dependent kinase 1 cdc2.
Sequence of Cyclin-dependent kinase 1 (P06493 whole entry): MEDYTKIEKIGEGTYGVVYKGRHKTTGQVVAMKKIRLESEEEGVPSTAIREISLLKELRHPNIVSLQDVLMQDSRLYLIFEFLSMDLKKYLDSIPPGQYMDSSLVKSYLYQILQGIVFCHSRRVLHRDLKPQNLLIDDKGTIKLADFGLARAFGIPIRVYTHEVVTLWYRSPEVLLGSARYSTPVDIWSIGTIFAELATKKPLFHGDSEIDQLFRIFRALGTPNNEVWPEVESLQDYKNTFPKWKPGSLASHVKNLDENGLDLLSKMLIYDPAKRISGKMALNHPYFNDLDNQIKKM
Molecule `Oc1cc2cccc[n+]2c2c(Cl)cccc12.[Cl-]` came in with a concentration for half-maximal inhibition (IC50) of over 1000 µM.
